The values that follow come from patent publication US20060074109A1, “Use of inhibitors of 24-hydroxylase in the treatment of cancer” (Sapphire Therapeutics, Inc., priority 2004, published 2006).

The subject of experiment [1] is 24OHase mRNA in OVCAR-3 cells. The experiment in a line: Quantitative RT-PCR of 24OHase mRNA. It counts as cell-based, human. The settings on record: 100 nM. The procedure: Ethanol was used as a vehicle, and it was also added to the control cells. For RNA extraction, the cells were collected 4, 6 and 24 hr after the treatment with vitamin D compound or vehicle. RNA extractions were done with TRIZOL reagent (GIBCO Invitrogen Corporation, Paisley, UK). The integrity of RNA samples was confirmed on gel electrophoresis. […] The reactions for 24-hydroxylase were performed in the LightCycler instrument (Roche Diagnostics, Basel, Switzerland) from 300 ng total RNA. PBGD (human porphobilinogendeaminase) mRNA was used as an […] control. […] Nucleotides, Tth DNA polymerase (DNA polymerase and reverse transcriptase activity), SYBR Green I and reaction buffer were included in the LightCycler-RNA Master SYBR Green I kit (Roche Diagnostics). […] Cell. […] Detection of fluorescent product was performed at the end of the extension step of each cycle. To verify the specific products, melting curve analysis and gel electrophoresis were done. The data were quantified by the Fit Points method with LightCycler Data Analysis software. […] Hormone treatments and RT-PCR were done twice.

A further experiment relates to OVCAR-3 cells. The experiment is described as follows: Cell growth assay, crystal violet, 11 days. It is filed as cell-based, human. To be noted: for effect on growth inhibition: Experiment V. The procedure: The human ovarian adenocarcinoma cell line, OVCAR-3 (ATCC, Manassas, Va.) was maintained, as recommended by the supplier, in RPMI 1640 medium (Sigma Aldrich, St. Louis, Mo.) supplemented with 10% FBS, 10 μg/ml insulin, 0.25% glucose and antibiotics (100 IU/ml penicillin, 100 μg/ml streptomycin). Human ovarian adenocarcinoma cell lines UT-OC-1, UT-OC-2, UT-OC-3, UT-OC-4, UT-OC-5 (Grenman, S., Engblom, P., Rantanen, V., Klemi, P. and Isola, J., “Cytogenetic Characterization of Five New Ovarian Carcinoma Cell Lines,” Acta Obstet. Gynecol. Scand., 76:83 (1997)) and SK-OV-3 and a human keratinocyte cell line HaCaT were grown in DMEM (Sigma Aldrich) with 10% FBS and antibiotics (100 IU/ml penicillin, 100 μg/ml streptomycin), and monkey kidney COS cells were maintained in DMEM/F12 (Sigma Aldrich) with 5% FBS. All cell lines were kept at 37° C. in a humidified 95% air/5% CO2 incubator.
When OVCAR-3 cells were on the logarithmic growth phase (70% confluent) the growth assay was started. For cell growth assay, 2,000 cell/200 μl/well were plated on 96-well culture plates. […] Ethanol was used as a vehicle, and it was also included in the control. The medium containing ethanol vehicle and/or hormones were changed to a fresh one every third day. Cell growth samples were taken 0, 1, 3, 5, 7, 9 and 11 days after the treatment.
Relative cell numbers were quantified as described previously (Kueng W, Silber E, Eppenberger U. Quantification of cells cultured on 96-well plates. Anal. Biochem., 182:16-9 (1989)). Cells were fixed on the bottom of the wells by addition of 10 μl of 11% glutaraldehyde solution in 0.1% phosphate buffer to 100 μl of medium. The plate was shaken 500 cycles/min for 15 min, washed 3 times by submersion in de-ionised water and air-dried. Fixed cells were stained with 0.1% solution of crystal violet dissolved in de-ionised water. After 20 min incubation, excess dye was removed by carefully washing with de-ionised water. The plate was air-dried prior to a bound dye solubilisation in 100 μl of 10% acetic acid. Relative cell number was given as absorbance units by measuring the optical density (590 nm) from each well using Victor 1420 multilabel counter (Wallac, Turku, Finland). Six determinations were used to calculate the mean optical density ±SD in each concentration at each time point. The absorbance value of day 0 (an overnight culture of 2,000 cells/well) was set as 0 by subtracting it from each value obtained from adjacent time-point measurements (days 1-11), and based on these values growth curves were created. Experiments were repeated 3-5 times. Day 11 was used to compare the effect of hormone treatments and 24OHase inhibitor. Statistical analyses were done using Student's t-test.
The cell growth response was determined as described in Experiment I. Briefly, cells were treated with indicated hormone concentrations or combinations of hormone and 24OHase inhibitor (VID400) for 11 days. The growth medium and hormones were changed to a fresh one every third day. After the treatment period, cells were fixed, stained with crystal violet, and the optical density (590 nm) was determined. The cell growth is presented as a percentage of ethanol-treated cells. The values represent the mean of 3 separate experiments ±SD. (*p<0.05, **p<0.001, ***p<0.0001, Student's t-test).
Cell growth samples were obtained after 11 days treatment.

For experiment [2], the system named is DU145 prostate cancer cells. The experiment in a line: Cell growth, methylene blue uptake (Experiment VI). To be noted: VID400+calcitriol. It counts as cell-based. The method, then:
(§1) Culture conditions were the same as for Experiment I. Cell growth was measured using uptake of methylene blue (0.5% in 50% ethanol), followed by air drying and release of the dye in 1% sodium N-lauroyl sarcosine in PBS.

Experiment [3] deals with PC3 prostate cancer cells. The experiment in a line: Cell growth, methylene blue uptake (Experiment VI). It is filed as cell-based. To be noted: VID400+calcitriol. The procedure:
as §1

Experiment [4] relates to CWR22Rv-1 prostate cancer cells. The experiment in a line: Cell growth, methylene blue uptake (Experiment VI). The settings on record: VID400+calcitriol. It is filed as cell-based. The method, then: as §1
Experiment [5] deals with ovarian cancer cell lines. The experiment in a line: Cell growth assay, crystal violet, 11 days, all cell lines. It is filed as cell-based, human. To be noted: 200 nM VID 400 alone. The procedure:
The human ovarian adenocarcinoma cell line, OVCAR-3 (ATCC, Manassas, Va.) was maintained, as recommended by the supplier, in RPMI 1640 medium (Sigma Aldrich, St. Louis, Mo.) supplemented with 10% FBS, 10 μg/ml insulin, 0.25% glucose and antibiotics (100 IU/ml penicillin, 100 μg/ml streptomycin). Human ovarian adenocarcinoma cell lines UT-OC-1, UT-OC-2, UT-OC-3, UT-OC-4, UT-OC-5 (Grenman, S., Engblom, P., Rantanen, V., Klemi, P. and Isola, J., “Cytogenetic Characterization of Five New Ovarian Carcinoma Cell Lines,” Acta Obstet. Gynecol. Scand., 76:83 (1997)) and SK-OV-3 and a human keratinocyte cell line HaCaT were grown in DMEM (Sigma Aldrich) with 10% FBS and antibiotics (100 IU/ml penicillin, 100 μg/ml streptomycin), and monkey kidney COS cells were maintained in DMEM/F12 (Sigma Aldrich) with 5% FBS. […]
Relative cell numbers were quantified as described previously (Kueng W, Silber E, Eppenberger U. Quantification of cells cultured on 96-well plates. Anal. Biochem., 182:16-9 (1989)). […] Relative cell number was given as absorbance units by measuring the optical density (590 nm) from each well using Victor 1420 multilabel counter (Wallac, Turku, Finland). […] The absorbance value of day 0 (an overnight culture of 2,000 cells/well) was set as 0 by subtracting it from each value obtained from adjacent time-point measurements (days 1-11), and based on these values growth curves were created. […]

In the next experiment the target is T1, 24-hydroxylase (Homo sapiens, UniProt Q07973).
T1 sequence (Q07973 36-514): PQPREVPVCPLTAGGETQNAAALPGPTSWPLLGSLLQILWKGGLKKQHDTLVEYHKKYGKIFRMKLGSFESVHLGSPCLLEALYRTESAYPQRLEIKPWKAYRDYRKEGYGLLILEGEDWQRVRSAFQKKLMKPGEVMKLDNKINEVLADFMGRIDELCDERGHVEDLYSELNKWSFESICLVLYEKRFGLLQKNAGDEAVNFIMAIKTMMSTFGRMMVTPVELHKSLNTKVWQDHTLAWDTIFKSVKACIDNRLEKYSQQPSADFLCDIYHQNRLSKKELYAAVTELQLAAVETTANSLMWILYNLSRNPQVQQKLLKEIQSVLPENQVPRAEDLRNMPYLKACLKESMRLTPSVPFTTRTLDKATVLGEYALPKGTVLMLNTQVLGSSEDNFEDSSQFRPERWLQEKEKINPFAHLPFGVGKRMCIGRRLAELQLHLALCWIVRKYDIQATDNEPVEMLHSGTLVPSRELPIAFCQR
The settings on record: Schuster et al., J. Cell. Biochem. 88:372-380 (2003); cited from earlier work.

Each structure is given as a SMILES string.

On to `C=C1CC[C@H](O)C/C1=C/C=C1\CCC[C@]2(C)[C@@H]([C@H](C)CCCC(C)(C)O)CC[C@@H]12` [25(OH)D3, monohydroxyvitamin D3], for which the “induction of 24OHase mRNA expression” value was determined as 3 fold in experiment [1] (6 hr treatment) and 0.5 fold in experiment [1] (24 hr treatment). For the same compound, the “stimulated growth compared to the control” value in the experiment on OVCAR-3 cells (10 nM, 11 days) is 32%; with OVCAR-3 cells (50 nM, 11 days), 41%; with OVCAR-3 cells (100 nM alone, 11 days, Experiment IV, not statistically significant), 18%; with OVCAR-3 cells (100 nM, 11 days, Experiment I) it was 39%; with OVCAR-3 cells (200 nM, 11 days) it was 35%; with OVCAR-3 cells (500 nM, 11 days), 11%.

On to `O=C(NC[C@@H](c1ccccc1)n1ccnc1)c1ccc(-c2ccc(Cl)cc2)cc1` [VID400, 2-(R)-4′-Chlorobiphenyl-4-carboxylic acid (2-imidazol-1-yl-2-phenyl-ethyl)-amide], for which the “effect on cell growth” value in experiment [2] is given as “synergistic inhibition of growth”; in experiment [3] it was “synergistic inhibition of growth”; in experiment [4], “synergistic inhibition of growth”; in experiment [5], “varied from slight stimulation to growth inhibition”. Moreover, the “inhibition of 24-hydroxylase” value on 24-hydroxylase is listed as “potent inhibitors of 24-hydroxylase”. Further, the “growth inhibition compared to the control” value with OVCAR-3 cells (200 nM VID400 alone, 11 days, Experiment IV) turned out to be 8%; in the experiment with OVCAR-3 cells (200 nM VID400 combined with 1 nM 1,25(OH)2D3, 11 days), 27%; in the experiment with OVCAR-3 cells (200 nM VID400 combined with 10 nM 1,25(OH)2D3, 11 days) it was 77%; with OVCAR-3 cells (200 nM VID400 combined with 100 nM 25(OH)D3, 11 days), 14%. In addition, the “effect on growth inhibition” value with OVCAR-3 cells (200 nM VID 400 combined with 10 nM 1,25(OH)2D3, 11 days) was “clearly enhanced the growth inhibition”; with OVCAR-3 cells (200 nM VID 400 combined with EB 1089, 11 days), “had no additional effect on cell growth inhibition”; in the experiment with OVCAR-3 cells (200 nM VID 400 combined with retinoids, 11 days) it was “slightly augmented the growth inhibition”.
